Values quoted from earlier work in patent US5480649A, “Procaterol-containing preparation for application to the skin” (Teikoku Seiaku Kabushiki Kaisha, priority 1990, dated 1996).

System: β-receptor of sympathetic nerves
Details: background statement

## CCC(NC(C)C)C(O)c1ccc(O)c2[nH]c(=O)ccc12 (centres unmarked) [procaterol]
  bronchodilating activity: strong bronchodilating activity in very small amounts
  duration of the activity: ≥ 8 h
